For one data set, the system named is neutrophil. The following applies: cited from earlier work.
The nature of data set [1]: stability of the isolated product on storage. Format: physicochemical. The note with it: for stability in solution: methanol solution; for stability of the neat isolated product: as isolated oil.
The test system of data set [2] is chemotactic response of equimolar concentrations of LTB4. The note with it: cited from earlier work.

Each structure is given as a SMILES string.

Regarding `CCCCCC=CCC(O)C=CC=CC=CC(O)CCCC(=O)N(C)C` (stereo not shown) [dimethylamide of LTB4], in the data set with neutrophil (at the concentrations that inhibit degranulation), the agonist activity result is listed as “no appreciable agonist activity”. Also, the “inhibition of neutrophil degranulation induced by LTB4” value in the data set with neutrophil is on record as “inhibit neutrophil degranulation induced by LTB4”.

On to `CCCCC/C=C\CC(O)C#Cc1cccc(CC(O)CCCC(=O)O)c1` (stereo not shown) [Example 24, Benzenehexanoic acid, delta-hydroxy-3-[(3-hydroxy-5-undecen-1-ynyl)]], for which the stability in solution result in data set [1] is on record as “stable as a methanol solution”.

Take `CCCCC/C=C\CC(O)C#Cc1cccc(CC(O)CCCC(=O)O)n1` (stereo not shown) [Example 36, 2-Pyridinehexanoic acid, delta-hydroxy-6-(3-hydroxy-5-undecen-1-ynyl)-]: the “stability of the neat isolated product” value in data set [1] is recorded as “unstable pale oil”.

Take `CCCCC/C=C\C[C@H](/C=C/C=C/C=C\[C@H](CCCC(=O)O)OC(C)=O)OC(C)=O` [LTB4 diacetate]: in data set [2], the “inhibition of chemotactic response to LTB4” value is given as “competitively inhibit chemotactic response”.

Regarding `CCCCC/C=C\CC(O)/C=C/c1cccc(CC(O)CCCC(=O)O)n1` (stereo not shown) [Example 35, 2-Pyridinehexanoic acid, delta-hydroxy-6-(3-hydroxy-1,5-undecadienyl) -], in data set [1], the “stability of the neat isolated product” value is listed as “unstable oil” and the stability in solution entry is given as “stable methanol solution”.

(Values after US5116981A, “Antiinflammatory leukotriene B4 analogs” (The Upjohn Company, priority 1989, dated 1992).)
